Experiments:
rotifers (Philodina) [1] = test: Synergistic effects on longevity of rotifers with ascorbate and trolox; type: in vivo; parameters: Maximum Life Span: unit not given here
Description: Ascorbate and trolox were administered at a concentration of 100 micromolar, the indoles were given at a concentration of 5 micromolar.

rotifers (Philodina) [2] = test: Inhibition of the aging process in a rotifer model (life span); type: in vivo
Source text: Free-radicals are involved in the aging process and since IPAM is a powerful cytoprotective agent, we tested IPAM for its property to inhibit the aging process. […] (*=p<0.05, statistically significant difference to control).

Aβ1-40 = target: T1, Aβ1-40 (Homo sapiens, UniProt P05067); test: Thioflavin T fluorescence, inhibition of Aβ aggregation; type: biochemical; details: Aβ 250 μM, compound:Aβ molar ratio 1:1; FIG. 1
T1 construct: thioflavin T fluorescence experiments performed with Aβ1-40
Description: FIG. 1 illustrates the results of thioflavin T fluorescence experiments performed with Aβ1-40 showing the effects of IPAM as compared with melatonin and IPA.
The ThT was performed as previously described. Briefly, 5 μl were obtained from each sample after incubation and added to 2 ml of a glycine-NaOH buffer (50 mM), pH 9.2, containing 2 μM thioflavin T. Fluorescence intensities were measured at excitation 435 nm and emission 485 nm in a Hitachi F-2000 fluorescence spectrophotometer. A time scan of fluorescence intensity was performed and three measurements were obtained after the decay reached a plateau at 200, 220, and 240 seconds. These measurements were averaged after subtracting the background fluorescence of 2.0 μM thioflavin T in the blank buffers. […] All measurements were done in triplicate. Aqueous stock solutions of 1 mM of each compound were made by first preparing a 10 mM suspension in 1 N HCl and then by completely dissolving them in 100 mM phosphate buffered saline at pH 7.4 (1:10, v:v) and re-adjusting the pH to 7.4 with 1 N NaOH. Solutions of Aβ were prepared by dissolving 2.2 mg of the peptide in 1 ml of 50 mM bicarbonate buffer at pH 9.6. 50 μl aliquots of this solution were lyophilized and stored at −80° C. until needed. Working stock solutions of the peptide (500 μM concentration) were prepared in HPLC-grade water immediately prior to the experiments. In the experimental samples, Aβ was further diluted 1:1 with phosphate buffered saline (pH 7.4, 100 mM) to which each of the compounds or equivalent volumes of buffer solution were added. The final concentration of Aβ in each sample was 250 μM and the compound:Aβ molar ratios were 1:1.

[3] = in vivo; cited from earlier work
[4] = Time dependent indole levels in brain tissue after i.p. administration; type: in vivo, Sprague-Dawley rats; details: mean+SD, N=4
Description: Time dependent changes in indole levels in brain tissue (pg/mg protein) after administration of 0.5 mg/kg i.p. of drug in phosphate buffered saline to one month old male Sprague-Dawley rats (N=4 animals, mean+SD). Endogenous levels of melatonin in saline treated control animals were 25+10 pg/mg protein, endogenous levels of indolepropionate were 80+20 pg/mg protein. Significant amounts of endogenous IPAM in rat brain could not be detected. Brain tissue was homogenized 1:10 in phosphate buffer and extracted 1:1 with ethylacetate. Recovery for melatonin, indolepropionate and IPAM were 57+6, 69+12 and 80+4%. Indoles were measured by HPLC with electrochemical detection (20% methanol eluent, 990 mV oxidation potential, IPAM elutes at 18 minutes, melatonin at 21 minutes, indolepropionate at 36 minutes).

[5] = system: Hydroxyl Radical Mediated Oxidative Damage to DNA; test: Inhibition of hydroxyl radical mediated oxidative damage to DNA in rat forebrain homogenate (8-hydroxydeoxyguanosine formation); type: biochemical; details: 60 min with 3 mM hydrogen peroxide, 4 mM ferrous sulfate, 2 mM ADP; mean+SD, N=6; read-out: IC 50 (concentration to reduce oxidative DNA damage by 50%)
Description: Rat forebrain homogenate was incubated for sixty minutes with 3 mM hydrogen peroxide, 4 mM ferrous sulfate and 2 mM ADP to generate hydroxyl radicals. The concentrations of each indole compound to reduce oxidative DNA damage by 50%, the IC 50 values, are given as means+standard deviations for N=6 different determinations. The IC 50 values were calculated by running six experiments each at 10 increasing concentrations ranging from 0.01 to 100 micromolar of melatonin, indole-3-propionic acid and indole-3-propionamide. DNA damage was examined by measuring the formation of 8-hydroxydeoxyguanosine with HPLC and electrochemical detection in the presence and absence of the hydroxyl radical scavengers.

[6] = series against Control (0.1% DMSO), ascorbate, trolox 100 micromolar
[7] = 30 minutes after 0.5 mg/kg i.p. in phosphate buffered saline
[8] = 60 minutes after 0.5 mg/kg i.p. in phosphate buffered saline
[9] = 120 minutes after 0.5 mg/kg i.p. in phosphate buffered saline

T1 sequence (P05067 672-711): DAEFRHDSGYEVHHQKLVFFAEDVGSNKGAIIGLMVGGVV

In the case of `O=C1O[C@H]([C@@H](O)CO)C(O)=C1O` [Ascorbate], the “Increase in % of control (Medium Life Span)” value (rotifers (Philodina) [1]; control = 0.1% DMSO) is reported as −1%, the “Increase in % of control (maximum life span)” value (rotifers (Philodina) [1]; control = 0.1% DMSO) is reported as −7% and the “Maximum Life Span” value (rotifers (Philodina) [1]; series against Ascorbate in 0.1% DMSO, ascorbate 100 micromolar, indoles 5 micromolar) is reported as 30. For the same compound, the “Maximum Life Span” value (rotifers (Philodina) [1]; [6]) was 28.

In the case of `O=C(O)CCc1c[nH]c2ccccc12` [IPA, indole-3-propionic acid], the “Increase in % of control (maximum life span)” value (rotifers (Philodina) [2]; 0.5 μM) is reported as “+37%”, the “Increase in % of control (median life span)” value (rotifers (Philodina) [2]; 0.5 μM) is reported as “+28%” and the “Maximum life span in days (90% survival)” value (rotifers (Philodina) [2]; 0.5 μM, control 27) is reported as 39 days. For the same compound, the “Increase in % of control (maximum life span)” value (rotifers (Philodina) [2]; 5 μM) was “+37%”, the “Increase in % of control (median life span)” value (rotifers (Philodina) [2]; 5 μM) was “+30%” and the “Maximum life span in days (90% survival)” value (rotifers (Philodina) [2]; 5 μM, control 30) was 41 days. The “Increase in % of control (median life span)” value (rotifers (Philodina) [2]; 50 μM) was −3%, the “Maximum life span in days (90% survival)” value (rotifers (Philodina) [2]; 50 μM, control 30) was 30 days and the “inhibition of Aβ aggregation” value (Aβ1-40) was “potent inhibitor of Aβ aggregation”. The half-life [3] was 4.5 h, the “indole levels in brain tissue” value [4, 7] was 160 + 11 pg/mg protein and the “indole levels in brain tissue” value [4, 8] was 210 + 18 pg/mg protein. The “indole levels in brain tissue” value [4, 9] was 230 + 25 pg/mg protein and the IC50 [5] was 7460 nM.

In the case of `NC(=O)CCc1c[nH]c2ccccc12` [IPAM, indole-3-propionamide], the “Increase in % of control (maximum life span)” value (rotifers (Philodina) [2]; 0.5 μM) is reported as “+55%”, the “Increase in % of control (median life span)” value (rotifers (Philodina) [2]; 0.5 μM) is reported as “+31%” and the “Maximum life span in days (90% survival)” value (rotifers (Philodina) [2]; 0.5 μM, control 27) is reported as 42 days. For the same compound, the “Increase in % of control (maximum life span)” value (rotifers (Philodina) [2]; 5 μM) was “+50%”, the “Increase in % of control (median life span)” value (rotifers (Philodina) [2]; 5 μM) was “+40%” and the “Maximum life span in days (90% survival)” value (rotifers (Philodina) [2]; 5 μM, control 30) was 45 days. The “Increase in % of control (maximum life span)” value (rotifers (Philodina) [2]; 50 μM) was “+13%”, the “Increase in % of control (median life span)” value (rotifers (Philodina) [2]; 50 μM) was “+15%” and the “Maximum life span in days (90% survival)” value (rotifers (Philodina) [2]; 50 μM, control 30) was 34 days. For the same compound, the toxicity in rotifers (rotifers (Philodina) [2]; in vivo) was “devoid of toxicity”, the “inhibition of Aβ aggregation” value (Aβ1-40) was “potent inhibitor of Aβ aggregation” and the “indole levels in brain tissue” value [4, 7] was 480 + 46 pg/mg protein. For the same compound, the “indole levels in brain tissue” value [4, 8] was 520 + 50 pg/mg protein, the “indole levels in brain tissue” value [4, 9] was 570 + 69 pg/mg protein and the IC50 [5] was 180 nM.

For `COc1ccc2[nH]cc(CCNC(C)=O)c2c1` [Melatonin], the “Increase in % of control (maximum life span)” value (rotifers (Philodina) [2]; 0.5 μM) was “+30%”, the “Increase in % of control (median life span)” value (rotifers (Philodina) [2]; 0.5 μM) was “+19%” and the “Maximum life span in days (90% survival)” value (rotifers (Philodina) [2]; 0.5 μM, control 27) was 35 days. The “Increase in % of control (maximum life span)” value (rotifers (Philodina) [2]; 5 μM) was “+40%”, the “Increase in % of control (median life span)” value (rotifers (Philodina) [2]; 5 μM) was “+29%” and the “Maximum life span in days (90% survival)” value (rotifers (Philodina) [2]; 5 μM, control 30) was 42 days. The “Increase in % of control (maximum life span)” value (rotifers (Philodina) [2]; 50 μM) was “+3%”, the “Increase in % of control (median life span)” value (rotifers (Philodina) [2]; 50 μM) was “+12%” and the “Maximum life span in days (90% survival)” value (rotifers (Philodina) [2]; 50 μM, control 30) was 31 days. The “inhibition of Aβ aggregation” value (Aβ1-40) was “potent inhibitor of Aβ aggregation”, the half-life [3] was 0.333 h and the “indole levels in brain tissue” value [4, 7] was 450 + 30 pg/mg protein. The “indole levels in brain tissue” value [4, 8] was 200 + 15 pg/mg protein, the “indole levels in brain tissue” value [4, 9] was 73 + 6 pg/mg protein and the IC50 [5] was 1400 nM.

With `Cc1c(C)c2c(c(C)c1O)CCC(C)(C(=O)O)O2` (stereo not drawn) [Trolox] the “Increase in % of control (Medium Life Span)” value (rotifers (Philodina) [1]; control = 0.1% DMSO) was “+8%”, the “Maximum Life Span” value (rotifers (Philodina) [1]; [6]) was 30 and the “Maximum Life Span” value (rotifers (Philodina) [1]; series against Trolox in 0.1% DMSO, trolox 100 micromolar, indoles 5 micromolar) was 34.
